Test results published in ChEMBL document CHEMBL3507680, “University of Dundee, Gates Library screen for HepG2 cell viability”.

Experiment: Human HepG2 cell viability assay in 384 well format
Assay type: toxicity, cell-based
Set-up: dose 125 nL, time 70.5 hour; cytotoxicity at 70.5 h: concentration not given beside the values
Details: HepG2 cells, read-out: Inhibition

| SMILES | cytotoxicity at 70.5 h |
| --- | --- |
| O=C(c1ccc2c(c1)CCC2)N1CCC(c2n[nH]c(C3CC3)n2)CC1 | -7.78% |
| COCCNC(=O)Nc1cccc(COCCOC(C)C)c1 | -6.5% |
| CC(C)Cc1cc(C(=O)N2CCC[C@H]2C(=O)N2CCOCC2)on1 | -9.69% |
| CN(C)CCO[C@H]1CN(C(=O)c2ccc(C#N)cc2)[C@@H]2COC[C@H]12 | -11% |
| COCc1cncc2c1CCN(C(=O)c1cccc(C#N)c1)C2 | -8.16% |
| COc1cc(OC)cc(C2NC(=O)CN2Cc2ccc(Br)cc2)c1 (centres undefined) | -8.73% |
| O=C(O)c1nnn(-c2ccc(OC(F)(F)F)cc2)c1-c1ccncc1 | -10.5% |
| CCn1ccnc1-c1nc2cc(S(=O)(=O)N3CCCC3)ccc2n1C | -3.32% |
| CS(=O)(=O)Nc1ccc2c(c1)NC(=O)CC2c1cnn2cccnc12 (centres undefined) | 17.5% |
| Cc1ccccc1N1CCCN(C(=O)CCCn2ccnc2C)CC1 | -12.2% |
| CN(C(=O)c1ccnn1C)[C@@H]1CCC[C@@H](Oc2ccccc2)[C@@H]1O | -3.62% |
| Cc1nn(C)c2c(N3CCN(C(=O)c4ccccc4)CC3)ncnc12 | -2.93% |
| O=C(COCc1ccccc1)N1CCC(OCc2cccnc2)CC1 | -3.09% |
| COC[C@]1(O)CCN(c2cc(OC)ncn2)CC1(C)C | -11.7% |
| O=C(O)c1ccc2ccc(N3CCN(CC4CC4)CC3)n2c1 | -9.01% |
| CNC(=O)c1c(C)cccc1NCC(=O)Nc1cc(C)nn1C | 8.71% |
| NS(=O)(=O)c1ccc(NCc2ccco2)c2ncccc12 | 8.34% |
| O=C(c1ccccn1)N1CCC(Cc2cnc3[nH]ccc3c2)CC1 | -6.64% |
| c1ccc(-c2ncn(CCCN3CCOCC3)c2-c2ccncc2)cc1 | -6.69% |
| O=C(NCc1cn2c(n1)SCC2)c1cn(CCN2CCCCC2)nn1 | 17.2% |
| CCN1C[C@@H]2CN(C(=O)C3CC=CC3)C[C@@H]2C1=O | 28% |
| Cn1c(=O)oc2ccc(Nc3ncc(C#N)cc3Cl)cc21 | -2.37% |
| CCCC(=O)N(CCCN1CCOCC1)c1nc2c(C)c(C)ccc2s1 | -14.7% |

| SMILES | cytotoxicity at 70.5 h |
| --- | --- |
| Cc1csc(CN2CCC3(CC2)COC(COc2ccccn2)C3)n1 (centres undefined) | -5.82% |
| COc1ccc2c(c1)OC1(CCN(Cc3ccc(F)cc3)CC1)CC2=O | 1.23% |
| Cc1ccc(OC2(C(=O)O)CCN(C(=O)c3cccs3)CC2)cn1 | 17.4% |
| Cc1nn(C)c(Cl)c1C1CCCN1Cc1cccc(C(N)=O)c1 (centres undefined) | -10.9% |
| COCCNC(=O)C1CN(C(N)=O)Cc2ccnn2C1 (centres undefined) | -8.89% |
| COc1ncccc1CNC(=O)c1cnccn1 | -12.4% |
| CCCc1nc(CN(C)CC2CCN(CCO)CC2)no1 | 14.7% |
| CCC1c2cccn2CCN1C(=O)c1ccc2nonc2c1 (centres undefined) | -2.25% |
| COCCN(CCC#N)S(=O)(=O)c1ccc(F)cc1Cl | 0.577% |
| COc1ccc(-c2cnc(CN(CC(N)=O)C3CCCC3)o2)cc1 | -11.2% |
| COc1cccc(CN(C)Cc2nc(C(C)C)no2)c1 | 14.7% |
| CCc1nc(C)sc1CN1CC[C@@](O)(C2CC2)[C@H](C)C1 | -7.56% |
| CC(C)N(CCCNC(=O)C1CC1)S(C)(=O)=O | -4.77% |
| O=C(C1CCCCC1)N1C[C@@H]2CCN(c3cnccn3)C[C@@H]2C1 | -6.4% |
| Cc1ccc(NC2(C(=O)NCc3c(C)n[nH]c3C)CCCC2)cc1 | -5.51% |
| COCCS(=O)(=O)c1ncc(CN(C)CC(C)C)n1Cc1ccccc1 | -1.85% |
| Cc1cccc(C(C(=O)NCc2cc(C)[nH]n2)N(C)C)c1 (centres undefined) | 7.18% |
| CC(C)N1C(=O)CN(CCCO)CC1(C)C | -9.87% |
| Cn1ccnc1CN1CC[C@@H]2[C@@H](CCC(=O)N2CCc2c[nH]cn2)C1 | 27.2% |
| Nc1nccc(N2CCNC(C(=O)NCc3ccccn3)C2)n1 (centres undefined) | 10.1% |
| CN(C)S(=O)(=O)c1ccc(=O)n(CC2CCCO2)c1 (centres undefined) | -1.56% |
| CCC(NC(=O)c1ccoc1)c1ccccc1OCC(=O)N1CCCC1 (centres undefined) | -3.93% |
| Cc1noc(-c2ccnc(Oc3ccc(CN4CCCC4)cc3C)c2)n1 | -4.76% |

| SMILES | cytotoxicity at 70.5 h |
| --- | --- |
| Cc1nc2ccc(C(=O)N3CCC(COc4ccccn4)CC3)cc2[nH]1 | 44.6% |
| CCc1cnc(CN(C)C(=O)NC2CCN(C)C2=O)s1 (centres undefined) | -7.59% |
| Cc1cnc(N2CCC3(CCCCN3C)C2)nc1 (centres undefined) | -7.87% |
| O=C(c1coc(COc2cccc3cnccc23)n1)N1CCCCCC1 | -1.27% |
| Cn1ccnc1CN1CCC2(CC1)CCN(c1cncnc1)C2=O | -3.96% |
| Cc1nc(CCCNC(=O)[C@H]2CNC[C@@H](C(=O)N3CCCC3)C2)sc1C | -5.47% |
| c1cncc(OCc2noc3c2CN(Cc2ccoc2)CC3)c1 | -15.9% |
| Cc1cc(I)cnc1NC(=O)C(C)(C)C | 5.65% |
| Cc1noc(C)c1CN1CCn2cc(CN3CCOCC3)nc2C1 | -0.251% |
| CCC(=O)Nc1ccc2c(ccn2CC(=O)N(CC)CC)c1 | -3.74% |
| Cc1nc(C(=O)N(C)CC(=O)N(C)C)nn1-c1ccccc1C(C)C | 33.6% |
| COCCNC(=O)C(C)S(=O)(=O)c1ccc(OC)cc1 (centres undefined) | 6.85% |
| COc1ccc(CN2CC[C@H]3CO[C@H](CNC(=O)N(C)C)[C@H]3C2)cc1 | -7.9% |
| CN(CCOc1ccc(F)cc1)S(=O)(=O)c1cnn(C)c1 | -8.4% |
| Cc1[nH]c(C2(N)CCCCC2)nc(=O)c1C | -4.13% |
| CC(NCC1CCN(CCO)CC1)c1ccc(OC(F)(F)F)cc1 (centres undefined) | -2.01% |
| CCN(CC)C(=O)Cn1ccc2cc(NC(=O)C3CC3)ccc21 | 7.86% |
| Cn1nc(COc2cncnc2)c2c1CCN(Cc1ccco1)C2 | 6.82% |
| CC(O)(CN1CCN(CCO)CC1)c1cccc(C(F)(F)F)c1 (centres undefined) | 14.6% |
| CN1CCC2(CC1)CN(C(=O)c1onc3ccccc13)CCCN2C | 26.8% |
| Cc1cc(NC(=O)N2CCC[C@@H]2CO)nn1-c1cccc(Cl)c1 | -8.23% |
| CC(C)C(C)NC(=O)c1cccn1Cc1cccnc1 (centres undefined) | -0.474% |
| Cc1nc(-c2nc(C(=O)N(C)C)c3ccccn23)cn1C(C)C | -8.88% |

| SMILES | cytotoxicity at 70.5 h |
| --- | --- |
| c1cc(-c2ccc3c(c2)CCC32CCNCC2)ccn1 | 26.1% |
| O=C(CCOc1ccccc1Cl)N1CCN(c2cnccn2)CC1 | 0.75% |
| Cc1ccc(NC2CCN(C(=O)CCc3ccccc3)CC2)nn1 | -6.29% |
| C[C@@H]1CN(C2CCOC2)C[C@]12CCN(c1cccnc1)C2=O (some centres undefined) | -9.89% |
| CC(NC(=O)N1CCc2ccccc2C1)c1nncn1C (centres undefined) | -13.5% |
| CN(C)C(=O)CCNC(=O)NCc1ccc(Br)cc1Cl | 17.2% |
| O=C(c1ccccn1)N1CCN(C(c2ccccc2)C(F)(F)F)CC1 (centres undefined) | 11.9% |
| Cn1nccc1-c1cc(C2CCN(S(C)(=O)=O)CC2)ccn1 | -7.68% |
| CCOc1ccccc1N1CCN(c2nnc(C)o2)CC1 | -13.5% |
| O=C(Cc1ccccc1)N1CCn2cc(Cn3cncn3)nc2C1 | 9.06% |
| COc1ccc(C(C)NC(=O)Nc2nccs2)cc1OC (centres undefined) | -8.99% |
| O=C(CC1CC1)N1CCC2(COCc3cnc(-c4ccccc4)nc32)C1 (centres undefined) | -8.52% |
| Cc1ccc(CN2CCc3c(CN(C)C)n[nH]c3C2)s1 | -0.649% |
| Cc1ncsc1C(=O)N1CCC(O)(Cn2c(C)cc3ccncc32)CC1 | -0.305% |
| CN(C)c1cc(CNCc2ccc(N3CCOCC3)cc2)ccn1 | -6.16% |
| CCOCC(=O)Nc1cc(-n2nnnc2C2CC2)ccc1F | 0.6% |
| CCC(C)(CC(=O)OC)NC(=O)c1cccc(F)c1F (centres undefined) | -14.7% |
| CN(C)Cc1ccnc(C2CCCN2Cc2cc[nH]n2)n1 (centres undefined) | -1.65% |
| CCS(=O)(=O)NC[C@]12COC[C@H]1CN(Cc1ccncc1)C2 | -5.02% |
| O=C(NC[C@H]1OC[C@@H](NC2CCC(F)(F)CC2)[C@@H]1O)C1CCCC1 | -10.5% |
| CCC(O)CN(Cc1cccc(C(=O)N(C)C)c1)c1ccccc1 (centres undefined) | -1.87% |
| CCCN1CCCn2nc(CNS(=O)(=O)c3ccc(C)cc3)cc2C1 | -6.85% |
| Cc1nn2c(N3CCCC(C(N)=O)C3)cc(-c3ccccc3)nc2c1C (centres undefined) | -3.49% |

| SMILES | cytotoxicity at 70.5 h |
| --- | --- |
| COc1cc(NC(=O)NCc2nccn2C)ccc1Br | -4.24% |
| Oc1cccc(CNC2CCN(CCc3ccncc3)CC2)c1 | -1.4% |
| Fc1ccc2[nH]c(CO[C@H]3CN(CC4CC4)C[C@H]3F)nc2c1 | 1.66% |
| CC(c1cccc(S(N)(=O)=O)c1)N(C)CCc1ccccc1 (centres undefined) | 11.5% |
| CCCn1ccnc1CN1C[C@@H](NC(C)=O)[C@H](c2ccc(OC)cc2)C1 | 15.8% |
| CN(C)C(=O)c1cn[nH]c1C1(C)CCN(c2ncccn2)CC1 | 2.96% |
| Cc1cc(NC(=O)NC2CCCc3c2cnn3CCO)n(C)n1 (centres undefined) | -1.75% |
| Cc1nn(C)c(C)c1NC(=O)c1cccc(CN2C[C@H]3CC[C@@H](C2)N3)c1 | -13.8% |
| CCc1nnnn1Cc1csc(N(C)C(C)=O)n1 | 11.5% |
| O=C([C@H]1C[C@H]2OCC[C@H]2N(CC2CC2)C1)N1CCCC1 | 5.6% |
| Cc1nn(C)c(N2CCOCC2)c1CNCc1ccnn1C | -9.28% |
| CC(Cn1ccnc1)NC(=O)NCCc1cccnc1 (centres undefined) | -2.45% |
| Cc1cc(NC(C)C(=O)N2CCN(c3ncccn3)CC2)ccc1F (centres undefined) | 9.5% |
| Cc1cc(C)nc(N2CCCC(c3nccn3CCCN(C)C)C2)c1 (centres undefined) | -13.7% |
| Cc1nc(CN2CCC3(CCCN(Cc4cccnc4)C3)C2=O)cs1 (centres undefined) | 26.7% |
| CC(Cc1ccc2c(c1)OCO2)c1cn(CCN2CCCC2)nn1 (centres undefined) | -12% |
| CCN1CCN(C(=O)C(C)N2CCN(Cc3nccn3C)CC2)CC1 (centres undefined) | 0.843% |
| N#CCCN(C(=O)CN1CCCC1c1ccsc1)c1ccccc1F (centres undefined) | -14% |
| CCOc1ccc2oc(-c3cnn(C)c3C)c(O)c(=O)c2c1 | -3.56% |
| Cc1ccc(N2CCCC(N(C)Cc3nc(C)c(C)o3)C2)nn1 (centres undefined) | -11.5% |
| CCC(CNC(=O)C1CC1)(OC)c1ccccc1 (centres undefined) | 8.11% |
| Cc1nc(C)n(CC2CCCCN2CCc2ccncc2)n1 (centres undefined) | 16.8% |
